Assay results published in patent US20250215004A1, “AZOLO COMPOUNDS FOR TREATMENT OF FIBROTIC DISEASES” (GEORG-AUGUST-UNIVERSITÄT GÖTTINGEN STIFTUNG ÖFFENTLICHEN …, priority 2022, published 2025).
≈ marks a conversion by molar mass, not a printed value.

What was measured:
Assay type in all cases: cell-based
TK173 cells [1] = assay: Collagen I Western blot in TGFβ1-treated TK173 fibroblasts; conditions: Homo sapiens, Fibroblast, 10 ng/ml TGFβ1 for 5 days, then compound 48 hours, Collagen I immunoblot
Method: (§1) Compound reconstitution. Prior to treatment, each compound was used from a stock solution of a concentration of 10 mg/ml in DMSO. Final concentration of DMSO in cell cultures was kept below 0.1%.
(§2) Cell culture and treatment. The human renal fibroblast cell line TK173 was derived from a normal human kidney (laboratory stock; (G. A. Müller et al., Exp. Nephrol. 1995, 3, 127). Cell line stabilization for research purposes was approved by the Ethics Committee of the Georg-August-University. TK173 cells were cultured in Dulbecco's modified Eagle's medium (DMEM, Gibco, USA) supplemented with 10% fetal bovine serum (FBS, Gibco, Germany) and 1% penicillin-streptomycin (PS, Gibco, USA) at 37° C. in a humidified atmosphere with 5% CO2. Cell line was routinely tested for mycoplasma contamination. To investigate the effect of compounds after profibrotic agent treatment, 3×10^4 TK173 cells were seeded in one well of a 6-well culture plate in normal medium. After 24 hours, the culture medium was removed, and the cells were incubated for a further 24 hours in FBS free culture medium (starvation medium). Then, 10 ng/ml TGFβ1 (R&D Systems, USA) was added to the starvation medium, and the culture medium was changed with fresh TGFβ1 in every alternate day. After 5 days of TGFβ1 treatment, cell culture medium was replaced by starvation medium with compounds at different concentration for following 48 hours of incubation.
Protein Extraction. Total proteins were extracted from the cultured cells by NP40 Cell Lysis Buffer (Invitrogen, USA) containing phosphatase (Sigma-Aldrich, USA) and protease inhibitor (Roche, Switzerland) followed by sonication and centrifugation at 12,000×g for 20 minutes at 4° C. to clear the lysates. The supernatant was collected and measured using Pierce BCA Protein Assay Kit (ThermoFisher Scientific) by PHOmo Microplate Reader (Autobio, China). The samples were stored at −80° C. prior to use.
Immunoblotting. Western blot analysis, 10 μg of extracted proteins were diluted in NuPAGE LDS Samples Buffer (Novex Life technologies, USA) containing 5% 2-Mercaptoethanol (Sigma-Aldrich, Germany), and following denatured for 5 minutes at 95° C. The proteins were resolved by 4-12% NuPAGE SDS-PAGE (Novex Life technologies, USA). Blots were often stripped with Thermo Scientific Restore PLUS Western Blot Stripping Buffer (Thermo Fisher Scientific, Germany) for reprobing. The following antibodies were used for immunoblotting: Collagen I (1:1000; ab233080, Abcam, USA), alpha smooth muscle Actin (1:1000; ab124964, Abcam, USA), GAPDH (1:8000; sc-32233, Santa Cruz, USA). Proteins were detected by LumiGLO chemiluminescent system (Cell Signaling Technology, USA) with appropriate secondary antibodies: anti-mouse HRP (1:2500; Dako, Denmark) and anti-rabbit HRP (1:2500; 7074, Cell Signaling Technology, USA) using ChemiDoc MP Imaging System (Bio-Rad, USA).

TK173 cells [2] = assay: ELISA to detect secreted type I collagen (Pro-Collagen I alpha 1) in conditioned media of TGFβ1-treated TK173 fibroblasts; conditions: Homo sapiens, Fibroblast, 10 ng/ml TGFβ1 for 5 days, then compound 48 hours, Pro-Collagen I alpha 1 ELISA of conditioned media, read-out: IC50, concentration where the TGFβ-stimulated collagen secretion is attenuated by 50%
Method: as §1, §2
Conditioned media containing the secretome of TK173 fibroblast were harvested after 48 hours of compound treatments. Secretion of pro-Collagen 1 was assessed with Human Pro-Collagen I alpha 1 DuoSet ELISA (R&D Systems, USA). To prepare the ELISA plate, Human Pro-Collagen I α1 Capture Antibody was diluted in ELISA Plate-coating Buffer at 4 μg/ml working concentration. 100 μl of diluted Capture Antibody was added to the 96-well microplates and incubated overnight at room temperature. After three times washing with Wash Buffer, microplates were blocked by adding 300 μl of Reagent Diluent for 1 hour at room temperature. To proceed the ELISA, Human Pro-Collagen I α1 Standards were diluted in Reagent Diluent (range between 31.3 pg/ml-2000 pg/ml) and 100 μl of standards or conditioned mediums were add into designated wells. Microplates were incubated at room temperature for 2 hours. Human Pro-Collagen I α1 Detection Antibody was prepared in Reagent Diluent at 100 ng/ml working concentration and 100 μl of diluted Detection Antibody was applied for 2 hours at room temperature after extensive washing. Then, working solution of Streptavidin-HRP with Reagent Diluent was prepared by diluting 1:40 and added into each well. After 20 minutes at room temperature incubation, microplates were washed and applied with 100 μl of Substrate Solution for 20 minutes followed by Stop Solution after washing. Finally, signals were measured at 450 nm absorbance by PHOmo Microplate Reader (Autobio, China). The amount of pro-collagen 1 antibody fusion was quantified by extrapolating the signal into a linear range of a pro-collagen 1 standard curve. Screening compounds were typically tested in at concentrations between 5 and 200 μg/ml. The IC50 values observed by the dose response curves for each compound (n=4-6, two independent experiments) were obtained by nonlinear regression analysis using Prism 9 software (GraphPad, La Jolla, USA) and represent the concentration where the TGFβ-stimulated collagen secretion is attenuated by 50%.

TK173 cells [3] = assay: Collagen I mRNA PCR assay (qPCR, normalized to GAPDH) in TGFβ1-treated TK173 fibroblasts; conditions: Homo sapiens, Fibroblast, 10 ng/ml TGFβ1 for 5 days, then compound 48 hours
Method: as §1, §2
RNA isolation. Total RNA was extracted by the TRIzol reagent (Life technologies, USA) and purified by PureLink RNA Mini Kit (Ambion, USA) according to instructions available from the manufacturer with minor modifications. The samples were stored at −80° C. prior to use. RNA concentrations were measured by NanoDrop Spectrophotometer (ThermoFisher Scientific, USA), and were equilibrated to 100 ng for complementary DNA (cDNA) synthesis.
Quantitative real-time PCR analysis (qPCR). For SYBR Green-based qPCR analysis, cDNA preparation was performed by using DNAse I (Sigma-Aldrich, USA) digestion to remove residual genomic DNA and SuperScript II Reverse Transcriptase kit (Invitrogen, USA) to synthesize cDNA following the manufacturer's detailed instructions. All qPCR reactions were performed using the StepOne Plus Real-Time System (Applied Biosystems, USA) and amplifications were done using the SYBR Green PCR Master Mix (Applied Biosystems, USA). The thermal cycling conditions were initiated to 95° C. for 20 seconds, 40 amplification cycles at 95° C. for 3 seconds and 60° C. for 30 seconds, with one cycle of dissociation at 95° C. for 15 seconds, 60° C. for 60 seconds, and 95° C. for 15 seconds. Three replicates per sample were run in duplicate. The experimental cycle threshold (Ct) values were normalized to those obtained for GAPDH, and the relative gene expression level was determined using the 2_ddCT methods.

Row | Compound | IC50 (TK173 cells [1]) [µg/mL] | IC50 (TK173 cells [2]) [µg/mL] | IC50 (TK173 cells [3]) [µg/mL]
1 | CNc1nn2nnnc2c2ncccc12 (single isomer, unassigned) [Compound 27, N-methylpyrido[2,3-d]tetrazolo[1,5-b]pyridazin-6-amine] | < 30 | – | –
2 | Cc1nn2nnnc2c2ccccc12 [Compound 2, 6-Methyl-tetrazolo[5,1-a]phthalazine] | – | 58 (≈ 313 µM) | –
3 | Cc1nn2c(C)nnc2c2ccccc12 [Compound 5, 3,6-Dimethyl-1,2,4-triazolo[3,4-a]phthalazine] | – | 39 (≈ 197 µM) | < 20
4 | Cc1nnc2c3ccccc3c(C#N)nn12 [Compound 6, 3-Methyl-1,2,4-triazolo[3,4-a]phthalazine-6-carbonitrile] | < 5 | 61 (≈ 292 µM) | –
5 | Cc1nnc2c3ccccc3c(NCCO)nn12 [Compound 7, 2-[(3-methyl-1,2,4-triazolo[3,4-a]phthalazin-6-yl)amino]-ethanol] | – | 32 (≈ 132 µM) | –
6 | COc1cc2cnn3c(C)nnc3c2cc1OC [Compound 9, 8,9-Dimethoxy-3-methyl-1,2,4-triazolo[3,4-a]phthalazine] | < 1 | 10 (≈ 40.9 µM) | –
7 | FC(F)(F)c1nnc2c3ccccc3cnn12 [Compound 10, 3-Trifluoromethyl-1,2,4-Triazolo[3,4-a]phthalazine] | – | 93 (≈ 390 µM) | –
8 | [2H]C([2H])([2H])c1nnc2c3ccccc3cnn12 [Compound 12, 3-D3-Methyl-1,2,4-triazolo[3,4-a]phthalazine] | < 5 | – | < 50
9 | OCc1nnc2c3ccccc3cnn12 [Compound 13, 1,2,4-Triazolo[3,4-a]phthalazin-3-yl-methanol] | – | 87 (≈ 435 µM) | –
10 | CCc1nnc2c3ccccc3cnn12 [Compound 14, 3-Ethyl-1,2,4-triazolo[3,4-a]phthalazine] | < 30 | – | –
11 | c1ccc2c(c1)cnn1cnnc21 [Compound 15, 1,2,4-Triazolo[3,4-a]phthalazine] | < 40 | 105 (≈ 617 µM) | –
12 | c1cc2c(cnn3nnnc23)s1 [Compound 35, Tetrazolo[1,5-b]thieno[3,2-d]pyridazine] | < 40 | 30 (≈ 169 µM) | –
13 | Cc1nnc2c3cscc3c(Cl)nn12 [Compound 38, 6-chloro-3-methylthieno[3,4-d][1,2,4]triazolo[4,3-b]pyridazine] | – | < 80 | –
14 | Cc1nnc2c3cscc3cnn12 [Compound 39, 3-methylthieno[3,4-d][1,2,4]triazolo[4,3-b]pyridazine] | – | < 80 | –
15 | c1nn2nnnc2c2cscc12 [Compound 41, Tetrazolo[1,5-b]thieno[3,4-d]pyridazine] | – | < 60 | –
16 | Cc1nnc2c3c(Cl)cccc3cnn12 [Compound 45, 10-chloro-3-methyl-[1,2,4]triazolo[3,4-a]phthalazine] | – | 20 (≈ 91.5 µM) | –
17 | Clc1cccc2cnn3nnnc3c12 [Compound 47a, 10-chlorotetrazolo[5,1-a]phthalazine] | – | < 5 | –

Row | Compound | IC50 (TK173 cells [1]) [µg/mL] | IC50 (TK173 cells [2]) [µg/mL] | IC50 (TK173 cells [3]) [µg/mL]
18 | Cc1nnc2c3cc(Cl)ccc3cnn12 [Compound 49a, 9-chloro-3-methyl-[1,2,4]triazolo[3,4-a]phthalazine] | < 50 | < 30 | –
19 | Cc1nnc2c3ccc(Cl)cc3cnn12 [Compound 49b, 8-chloro-3-methyl-[1,2,4]triazolo[3,4-a]phthalazine] | – | 30 (≈ 137 µM) | –
20 | Clc1ccc2cnn3nnnc3c2c1 [Compound 51a, 9-chlorotetrazolo[5,1-a]phthalazine] | ≤ 40 | – | –
21 | Clc1ccc2c(cnn3nnnc23)c1 [Compound 51b, 8-chlorotetrazolo[5,1-a]phthalazine] | < 5 | – | < 5
22 | Cc1nnc2c3cc(Cl)c(Cl)cc3cnn12 [Compound 53, 8,9-Dichloro-3-methyl-[1,2,4]triazolo[3,4-a]phthalazine] | < 60 | < 20 | –
23 | Clc1cc2cnn3nnnc3c2cc1Cl [Compound 55, 8,9-Dichlorotetrazolo[5,1-a]phthalazine] | < 20 | < 10 | –
24 | Fc1cccc2cnn3nnnc3c12 [Compound 59a, 10-Fluorotetrazolo[5,1-a]phthalazine] | – | < 20 | –
25 | Fc1cccc2c1cnn1nnnc21 [Compound 59b, 7-fluorotetrazolo[5,1-a]phthalazine] | – | < 5 | –
26 | Cc1nnc2c3cc(F)ccc3cnn12 [Compound 61a, 9-Fluoro-3-methyl-[1,2,4]triazolo[3,4-a]phthalazine] | < 60 | 530 (≈ 2620 µM) | –
27 | Cc1nnc2c3ccc(F)cc3cnn12 [Compound 61b, 8-fluoro-3-methyl-[1,2,4]triazolo[3,4-a]phthalazine] | < 80 | < 30 | –
28 | Fc1ccc2cnn3nnnc3c2c1 [Compound 63a, 9-Fluorotetrazolo[5,1-a]phthalazine] | < 70 | < 30 | –
29 | Fc1ccc2c(cnn3nnnc23)c1 [Compound 63b, 8-fluorotetrazolo[5,1-a]phthalazine] | < 30 | < 50 | –
30 | Cc1nnc2c3cc(F)c(F)cc3cnn12 [Compound 65, 8,9-difluoro-3-methyl-[1,2,4]triazolo[3,4-a]phthalazine] | < 50 | < 50 | –
31 | Fc1cc2cnn3nnnc3c2cc1F [Compound 67, 8,9-difluorotetrazolo[5,1-a]phthalazine] | – | < 3 | –
32 | COc1ccc2cnn3c(C)nnc3c2c1 [Compound 69a, 9-Methoxy-3-methyl-[1,2,4]triazolo[3,4-a]phthalazine] | < 30 | < 30 | –
33 | COc1ccc2c(cnn3c(C)nnc23)c1 [Compound 69b, 8-methoxy-3-methyl-[1,2,4]triazolo[3,4-a]phthalazine] | < 80 | < 30 | –
34 | CC(C)Oc1nn2nnnc2c2c(Cl)cccc12 [Compound 72, 10-Chloro-6-isopropoxytetrazolo[5,1-a]phthalazine] | < 5 | < 5 | –
